Patent US20210121426A1, “BLOOD PURIFICATION BY ALKALINIZING AGENT” (TOHOKU UNIVERSITY, priority 2017, published 2021)
Marks after values point to notes of the source that are not given here.

Experiments:
argininosuccinic acid [1] = assay: Human clinical trial in CKD patients: argininosuccinic acid in plasma and early morning urine (LC-MS/MS); format: in vivo; design: key to Influence on concentration of ASA / Influence on ASA U/P ratio: Excellent effects: ◯; Poor effects: X; No significant difference: —; (◯): whether or not there is an effect of promoting excretion of indoxyl sulfate into the urine cannot be determined
Procedure: (§1) 1. […] Patients were assigned to each group so that age, sex, presence of diabetes, and eGFR were not biased. Each group was treated according to the “CKD medical care guide-summary of treatment” (hereinafter referred to as standard treatment).
(§2) An alkalinizing agent was not administered to the control group. […] A pH of early morning urine was controlled over time so that the dosage could be increased up to 6 tablets, 3 times a day (morning, noon, evening) as needed according to the discretion of the physician in cases where a pH of early morning urine was less than pH 6.5. To the group B, 3 tablets a day in which each tablet contained 500 mg of sodium bicarbonate were orally administered 3 times a day (morning, noon, evening) for 24 weeks. A pH of early morning urine was controlled over time so that the dosage could be increased up to 6 tablets, 3 times a day (morning, noon, evening) as needed according to the discretion of the physician in cases where a pH of early morning urine was less than pH 6.5.
(§3) Early morning urine and blood were collected before the start of administration, and 6 weeks, 12 weeks, and 24 weeks after the start of administration, and each specimen was stored at −80° C. Methods used in the present field for indoxyl sulfate, p-cresyl sulfate, phenylacetyl-L-glutamine, hippuric acid, and argininosuccinic acid in urine and blood (Sato, E., et. al., Metabolic alteration by indoxyl sulfate in skeletal muscle induce uremic sarcopenia in chronic kidney disease., Sci Rep. 2016 Nov. 10; 6:36618. doi: 10.1038/srep36618, and the like) were referred to, and quantitative analysis was performed using the following liquid chromatography triple quadrupole mass spectrometer (LC-MS/MS).
For LC, NANOSPACE SI-2 (manufactured by Shiseido) was used, and […] MGM was selected as the analytical column.
For MS, TSQ Quantiva (manufactured by Thermo Fisher Scientific Co., Ltd.) was used, and five compounds were ionized in the negative mode and detected using the Selected Reaction Monitoring method. The quantitative value was calculated using a calibration curve prepared with a standard solution of each compound.
(§4) For statistical analysis, the Mann-Whitney test was used for comparison between groups, and the Wilcoxon test was used for comparison of changes over time. The Pearson test was used for correlation.
Then, the average value and SD of each group were calculated for (i) to (ix) above. For each of (iv) to (ix) above, the average value and SD of each group were calculated for all data of 6 weeks, 12 weeks, and 24 weeks after the start of administration in each group.

β2-microglobulin = assay: Human clinical trial: urinary β2-microglobulin (latex agglutination method); format: in vivo
Procedure: as §1, §2, §3
In addition, the amount of urinary β2-microglobulin was measured by latex agglutination method using the LZ test “Eiken” β2-M and LZ-β2-M standard U “Eiken” (Eiken Chemical Co., Tokyo, Japan). Furthermore, the amount of cystatin C in the serum was measured by a colloidal gold agglutination method using Nescoat GC Cystatin C (Nm) (Alfresa Pharma, Osaka, Japan).
as §4

p-cresyl sulfate = assay: Urine p-cresyl sulfate (PCS) corrected by urinary specific gravity; format: in vivo, human
From the text: (§5) Medical Examination, Vol. 44, No. 1, 1995, pages 79-83 by Tetsuo Aoki et al. was referred to. A urinary specific gravity 1.022 was converted into a reference value.
(§6) Specific gravity correction value (unit/1.022·UG)=actual measurement value×(1.022−1.000)/(specific gravity value−1.000)

argininosuccinic acid [2] = assay: Urine argininosuccinic acid (ASA) corrected by urinary specific gravity; format: in vivo, human
From the text: as §5, §6

[3] = 0 W, before the start of administration
[4] = 6-24 W, all data of 6, 12 and 24 weeks

Structure (SMILES): O=C([O-])O.[Na+] [Bicarbonate, sodium bicarbonate]
- Arginino Succinic Acid-Urine/Plasma ratio (argininosuccinic acid [1]; [3]): 3.82 ± 4.93
- Plasma Arginino Succinic Acid (argininosuccinic acid [1]; [3]): 1178 ± 655 ng/mL
- Urine Arginino Succinic Acid (early morning urine) (argininosuccinic acid [1]; [3]): 2911 ± 1691 ng/mL
- ASA - Urine/Plasma ratio, change from week 0 (argininosuccinic acid [1]; [4]): 1.15 ± 7.87
- Arginino Succinic Acid-Urine/Plasma ratio (argininosuccinic acid [1]; [4]): 4.97 ± 7.98
- Plasma Arginino Succinic Acid (argininosuccinic acid [1]; [4]): 1327 ± 1416 ng/mL
- Plasma Arginino Succinic Acid, change from week 0 (argininosuccinic acid [1]; [4]): 148.9 ± 1134 ng/mL
- Urine Arginino Succinic Acid (early morning urine) (argininosuccinic acid [1]; [4]): 3071 ± 2386 ng/mL
- Urine Arginino Succinic Acid, change from week 0 (argininosuccinic acid [1]; [4]): 160.2 ± 1756 ng/mL
- ASA - Urine/Plasma ratio, change from week 0 (argininosuccinic acid [1]; 6 W): 1.93 ± 7.90
- Arginino Succinic Acid-Urine/Plasma ratio (argininosuccinic acid [1]; 6 W): 5.75 ± 9.80
- Plasma Arginino Succinic Acid (argininosuccinic acid [1]; 6 W): 1245 ± 748 ng/mL
- Plasma Arginino Succinic Acid, change from week 0 (argininosuccinic acid [1]; 6 W): 66.5 ± 565.5 ng/mL
- Urine Arginino Succinic Acid (early morning urine) (argininosuccinic acid [1]; 6 W): 3346 ± 2636 ng/mL
- Urine Arginino Succinic Acid, change from week 0 (argininosuccinic acid [1]; 6 W): 434.7 ± 1299 ng/mL
- effect of excretion of argininosuccinic acid from blood into urine (argininosuccinic acid [1]; 6 to 24 weeks, urine/plasma ratio): more strongly recognized
- ASA - Urine/Plasma ratio, change from week 0 (argininosuccinic acid [1]; 12 W): −1.01 ± 4.47
- Arginino Succinic Acid-Urine/Plasma ratio (argininosuccinic acid [1]; 12 W): 2.81 ± 1.86
- Plasma Arginino Succinic Acid (argininosuccinic acid [1]; 12 W): 1576 ± 2160 ng/mL
- Plasma Arginino Succinic Acid, change from week 0 (argininosuccinic acid [1]; 12 W): 397.7 ± 1733 ng/mL
- Urine Arginino Succinic Acid (early morning urine) (argininosuccinic acid [1]; 12 W): 2647 ± 2123 ng/mL
- Urine Arginino Succinic Acid, change from week 0 (argininosuccinic acid [1]; 12 W): -264.1 ± 1491 ng/mL
- ASA - Urine/Plasma ratio, change from week 0 (argininosuccinic acid [1]; 24 W): 2.54 ± 10.20^a
- Arginino Succinic Acid-Urine/Plasma ratio (argininosuccinic acid [1]; 24 W): 6.36 ± 9.60
- Plasma Arginino Succinic Acid (argininosuccinic acid [1]; 24 W): 1160 ± 977 ng/mL
- Plasma Arginino Succinic Acid, change from week 0 (argininosuccinic acid [1]; 24 W): -17.6 ± 776.9 ng/mL
- Urine Arginino Succinic Acid (early morning urine) (argininosuccinic acid [1]; 24 W): 3221 ± 2466 ng/mL
- Urine Arginino Succinic Acid, change from week 0 (argininosuccinic acid [1]; 24 W): 309.9 ± 2335 ng/mL
- Influence on concentration of ASA (argininosuccinic acid [1]; Plasma, comparison with Cont): —
- Influence on concentration of ASA (argininosuccinic acid [1]; Plasma, comparison with reference drug): —
- Influence on ASA U/P ratio (argininosuccinic acid [1]; comparison with Cont): —
- Influence on ASA U/P ratio (argininosuccinic acid [1]; comparison with reference drug): —
- Influence on concentration of ASA (argininosuccinic acid [1]; Urine, comparison with Cont): —
- Influence on concentration of ASA (argininosuccinic acid [1]; Urine, comparison with reference drug): —
- Urine B2-microglobulin (β2-microglobulin; [3]): 99.0 ± 62.8 µg/L
- Urine B2-microglobulin (β2-microglobulin; [4]): 206.2 ± 255.8^a μg/L
- Urine B2-microglobulin, change from week 0 (β2-microglobulin; [4]): 148.3 ± 258.4 ^b ug/L
- Urine B2-microglobulin (β2-microglobulin; 6 W): 216.3 ± 228.2^e μg/L
- Urine B2-microglobulin, change from week 0 (β2-microglobulin; 6 W): 117.3 ± 220.7 µg/L
- Urine B2-microglobulin (β2-microglobulin; 12 W): 264.5 ± 301.9 µg/L
- Urine B2-microglobulin, change from week 0 (β2-microglobulin; 12 W): 165.5 ± 282.0^ ug/L
- Urine B2-microglobulin (β2-microglobulin; 24 W): 261.0 ± 301.5^c,f μg/L
- Urine B2-microglobulin, change from week 0 (β2-microglobulin; 24 W): 162.0 ± 281.8 ^c ug/L
- kidney tubular damage (kidney proximal tubular damage) associated with progression of the stage (β2-microglobulin; from urinary β2-microglobulin): did not suppress
- Urine PCS, specific gravity corrected (p-cresyl sulfate; 0 W): 113.0 ± 119.5 μg · mL^−1/1.022 · UG
- Urine PCS, specific gravity corrected (p-cresyl sulfate; 6-24 W, all data): 83.2 ± 93.2 μg · mL^−1/1.022 · UG
- Urine PCS, specific gravity corrected, % Relative value vs week 0 (p-cresyl sulfate; 6-24 W, all data): 151 ± 323^b,e %
- Urine PCS, specific gravity corrected, difference vs week 0 (p-cresyl sulfate; 6-24 W, all data): −29.8 ± 66.1^b,d μg · mL^−1/1.022 · UG
- Urine PCS, specific gravity corrected (p-cresyl sulfate; 6 W): 98.1 ± 118.3 μg · mL^−1/1.022 · UG
- Urine PCS, specific gravity corrected, % Relative value vs week 0 (p-cresyl sulfate; 6 W): 83 ± 34^d,g %
- Urine PCS, specific gravity corrected (p-cresyl sulfate; 12 W): 66.7 ± 73.0 μg · mL^−1/1.022 · UG
- Urine PCS, specific gravity corrected, % Relative value vs week 0 (p-cresyl sulfate; 12 W): 105 ± 112%
- Urine PCS, specific gravity corrected, difference vs week 0 (p-cresyl sulfate; 12 W): −46.3 ± 68.4^d,g μg · mL^−1/1.022 · UG
- Urine PCS, specific gravity corrected (p-cresyl sulfate; 24 W): 84.8 ± 86.0 μg · mL^−1/1.022 · UG
- Urine PCS, specific gravity corrected, % Relative value vs week 0 (p-cresyl sulfate; 24 W): 265 ± 540%
- Urine PCS, specific gravity corrected, difference vs week 0 (p-cresyl sulfate; 24 W): −28.3 ± 84.4^ μg · mL^−1/1.022 · UG
- Urine ASA, specific gravity corrected (argininosuccinic acid [2]; 0 W): 5.87 ± 5.13 μg · mL^−1/1.022 · UG
- Urine ASA, specific gravity corrected (argininosuccinic acid [2]; 6-24 W, all data): 5.02 ± 3.37 μg · mL^−1/1.022 · UG
- Urine ASA, specific gravity corrected, % Relative value vs week 0 (argininosuccinic acid [2]; 6-24 W, all data): 97 ± 31%
- Urine ASA, specific gravity corrected, difference vs week 0 (argininosuccinic acid [2]; 6-24 W, all data): −0.85 ± 2.76 μg · mL^−1/1.022 · UG
- Urine ASA, specific gravity corrected (argininosuccinic acid [2]; 6 W): 5.47 ± 3.87 μg · mL^−1/1.022 · UG
- Urine ASA, specific gravity corrected, % Relative value vs week 0 (argininosuccinic acid [2]; 6 W): 101 ± 32%
- Urine ASA, specific gravity corrected, difference vs week 0 (argininosuccinic acid [2]; 6 W): −0.40 ± 2.25 μg · mL^−1/1.022 · UG
- Urine ASA, specific gravity corrected (argininosuccinic acid [2]; 12 W): 4.66 ± 2.78 μg · mL^−1/1.022 · UG
- Urine ASA, specific gravity corrected, % Relative value vs week 0 (argininosuccinic acid [2]; 12 W): 93 ± 29%
- Urine ASA, specific gravity corrected, difference vs week 0 (argininosuccinic acid [2]; 12 W): −0.21 ± 3.04 μg · mL^−1/1.022 · UG
- Urine ASA, specific gravity corrected (argininosuccinic acid [2]; 24 W): 4.93 ± 3.58 μg · mL^−1/1.022 · UG
- Urine ASA, specific gravity corrected, % Relative value vs week 0 (argininosuccinic acid [2]; 24 W): 97 ± 33%
- Urine ASA, specific gravity corrected, difference vs week 0 (argininosuccinic acid [2]; 24 W): −0.94 ± 3.02 μg · mL^−1/1.022 · UG
